Experimental data taken from ChEMBL document CHEMBL2157955, “Design, synthesis and anticancer activity of 1-acyl-3-amino-1,4,5,6-tetrahydropyrrolo[3,4-c]pyrazole derivatives” (Bioorg Med Chem Lett, 2012).

Legend:
HCT-116 [1] = experiment: Cytotoxicity against human HCT116 cells after 48 hrs by SRB assay; assay type: functional, cell-based; settings: HCT-116, 48 h
HT-29 [2] = experiment: Cytotoxicity against human HT-29 cells after 48 hrs by SRB assay; assay type: functional, cell-based; settings: HT-29, 48 h
MCF7 [3] = experiment: Cytotoxicity against human MCF7 cells after 48 hrs by SRB assay; assay type: functional, cell-based; settings: MCF7, 48 h
HepG2 [4] = experiment: Cytotoxicity against human HepG2 cells after 48 hrs by SRB assay; assay type: functional, cell-based; settings: HepG2, 48 h
A549 [5] = experiment: Cytotoxicity against human A549 cells after 48 hrs by SRB assay; assay type: functional, cell-based; settings: A549, 48 h
HT-1080 [6] = experiment: Cytotoxicity against human HT1080 cells after 48 hrs by SRB assay; assay type: functional, cell-based; settings: HT-1080, 48 h
[7] = Cytotoxicity against human L02 cells after 48 hrs by SRB assay; assay type: cell-based; settings: L02, 48 h
HT-1080 [8] = experiment: Ratio of (R)-roscovitine IC50 to compound IC50 for human HT1080 cells; assay type: functional
HepG2 [9] = experiment: Ratio of (R)-roscovitine IC50 to compound IC50 for human HepG2 cells; assay type: functional
HCT-116 [10] = experiment: Ratio of (R)-roscovitine IC50 to compound IC50 for human HCT116 cells; assay type: functional
HT-29 [11] = experiment: Ratio of (R)-roscovitine IC50 to compound IC50 for human HT-29 cells; assay type: functional
MCF7 [12] = experiment: Ratio of (R)-roscovitine IC50 to compound IC50 for human MCF7 cells; assay type: functional
A549 [13] = experiment: Ratio of (R)-roscovitine IC50 to compound IC50 for human A549 cells; assay type: functional
[14] = molecular target: Cyclin-dependent kinase 1/cyclin B1 (Homo sapiens) (UniProt P06493+P14635); experiment: Inhibition of human CDK1/cyclinB at 10 uM; assay type: protein-complex assay
[15] = molecular target: Cyclin-dependent kinase 2/cyclin A (Homo sapiens) (UniProt P24941+P20248+P78396); experiment: Inhibition of human CDK2/cyclin A at 10 uM; assay type: protein-complex assay
[16] = molecular target: Cyclin-dependent kinase 2/cyclin E (Homo sapiens) (UniProt P24864+P24941+O96020); experiment: Inhibition of human CDK2/cyclin E at 10 uM; assay type: protein-complex assay
[17] = molecular target: Cyclin-dependent kinase 5/CDK5 activator 1 (Homo sapiens) (UniProt Q00535+Q15078); experiment: Inhibition of human CDK5/p25 at 10 uM; assay type: protein-complex assay
[18] = molecular target: Cyclin-dependent kinase 7/ cyclin H (Homo sapiens) (UniProt P51946+P50613); experiment: Inhibition of human CDK7/CyclinH/MAT1 at 10 uM; assay type: protein-complex assay
[19] = molecular target: CDK9/cyclin T1 (Homo sapiens) (UniProt O60563+P50750); experiment: Inhibition of human CDK9/CyclinT1 at 10 uM; assay type: protein-complex assay
[20] = molecular target: Epidermal growth factor receptor (Homo sapiens) (UniProt P00533); experiment: Inhibition of human EGFR at 10 uM
[21] = molecular target: Glycogen synthase kinase-3 beta (Homo sapiens) (UniProt P49841); experiment: Inhibition of human GSK3beta at 10 uM
[22] = molecular target: T1, Aurora kinase A (Homo sapiens) (UniProt O14965); experiment: Inhibition of human Aurora A kinase at 10 uM
T1 sequence (whole entry): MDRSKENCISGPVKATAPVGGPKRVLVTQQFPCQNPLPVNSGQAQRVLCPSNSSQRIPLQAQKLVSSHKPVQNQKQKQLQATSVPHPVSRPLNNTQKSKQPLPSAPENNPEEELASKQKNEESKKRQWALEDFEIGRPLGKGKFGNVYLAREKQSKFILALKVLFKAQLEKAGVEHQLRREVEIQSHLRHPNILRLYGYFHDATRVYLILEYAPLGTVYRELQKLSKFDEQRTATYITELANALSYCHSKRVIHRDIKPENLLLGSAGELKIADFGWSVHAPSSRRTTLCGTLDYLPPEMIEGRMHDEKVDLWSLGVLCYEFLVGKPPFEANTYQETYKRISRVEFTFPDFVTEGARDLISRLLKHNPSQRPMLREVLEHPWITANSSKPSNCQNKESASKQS

[23] = molecular target: Aurora kinase B (Homo sapiens) (UniProt Q96GD4); experiment: Inhibition of human Aurora B kinase at 10 uM
[24] = molecular target: Serine/threonine-protein kinase mTOR (Homo sapiens) (UniProt P42345); experiment: Inhibition of human mTOR at 10 uM

Cyclin-dependent kinase 1/cyclin B1 (Homo sapiens), sequence (P06493 whole entry, looked up): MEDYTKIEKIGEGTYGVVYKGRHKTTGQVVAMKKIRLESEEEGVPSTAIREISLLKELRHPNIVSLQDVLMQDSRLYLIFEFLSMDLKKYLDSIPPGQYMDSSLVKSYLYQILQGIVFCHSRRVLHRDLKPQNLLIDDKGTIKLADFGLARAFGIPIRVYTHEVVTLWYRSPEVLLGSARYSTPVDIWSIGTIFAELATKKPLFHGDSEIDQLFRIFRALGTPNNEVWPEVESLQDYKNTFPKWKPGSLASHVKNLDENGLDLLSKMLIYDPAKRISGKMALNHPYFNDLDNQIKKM
Cyclin-dependent kinase 1/cyclin B1 (Homo sapiens), sequence (P14635 whole entry, looked up): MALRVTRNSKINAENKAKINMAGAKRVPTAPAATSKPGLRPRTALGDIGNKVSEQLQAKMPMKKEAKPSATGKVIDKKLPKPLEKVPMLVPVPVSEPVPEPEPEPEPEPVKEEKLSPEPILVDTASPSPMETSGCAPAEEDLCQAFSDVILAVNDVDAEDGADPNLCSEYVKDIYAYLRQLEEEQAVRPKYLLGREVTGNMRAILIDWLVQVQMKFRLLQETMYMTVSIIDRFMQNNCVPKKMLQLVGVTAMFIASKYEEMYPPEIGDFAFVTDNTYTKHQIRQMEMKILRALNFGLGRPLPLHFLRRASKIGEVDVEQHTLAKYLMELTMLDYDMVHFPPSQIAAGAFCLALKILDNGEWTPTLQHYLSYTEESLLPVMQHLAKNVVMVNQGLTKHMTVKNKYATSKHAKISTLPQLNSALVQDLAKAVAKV
Epidermal growth factor receptor (Homo sapiens), sequence (P00533 whole entry): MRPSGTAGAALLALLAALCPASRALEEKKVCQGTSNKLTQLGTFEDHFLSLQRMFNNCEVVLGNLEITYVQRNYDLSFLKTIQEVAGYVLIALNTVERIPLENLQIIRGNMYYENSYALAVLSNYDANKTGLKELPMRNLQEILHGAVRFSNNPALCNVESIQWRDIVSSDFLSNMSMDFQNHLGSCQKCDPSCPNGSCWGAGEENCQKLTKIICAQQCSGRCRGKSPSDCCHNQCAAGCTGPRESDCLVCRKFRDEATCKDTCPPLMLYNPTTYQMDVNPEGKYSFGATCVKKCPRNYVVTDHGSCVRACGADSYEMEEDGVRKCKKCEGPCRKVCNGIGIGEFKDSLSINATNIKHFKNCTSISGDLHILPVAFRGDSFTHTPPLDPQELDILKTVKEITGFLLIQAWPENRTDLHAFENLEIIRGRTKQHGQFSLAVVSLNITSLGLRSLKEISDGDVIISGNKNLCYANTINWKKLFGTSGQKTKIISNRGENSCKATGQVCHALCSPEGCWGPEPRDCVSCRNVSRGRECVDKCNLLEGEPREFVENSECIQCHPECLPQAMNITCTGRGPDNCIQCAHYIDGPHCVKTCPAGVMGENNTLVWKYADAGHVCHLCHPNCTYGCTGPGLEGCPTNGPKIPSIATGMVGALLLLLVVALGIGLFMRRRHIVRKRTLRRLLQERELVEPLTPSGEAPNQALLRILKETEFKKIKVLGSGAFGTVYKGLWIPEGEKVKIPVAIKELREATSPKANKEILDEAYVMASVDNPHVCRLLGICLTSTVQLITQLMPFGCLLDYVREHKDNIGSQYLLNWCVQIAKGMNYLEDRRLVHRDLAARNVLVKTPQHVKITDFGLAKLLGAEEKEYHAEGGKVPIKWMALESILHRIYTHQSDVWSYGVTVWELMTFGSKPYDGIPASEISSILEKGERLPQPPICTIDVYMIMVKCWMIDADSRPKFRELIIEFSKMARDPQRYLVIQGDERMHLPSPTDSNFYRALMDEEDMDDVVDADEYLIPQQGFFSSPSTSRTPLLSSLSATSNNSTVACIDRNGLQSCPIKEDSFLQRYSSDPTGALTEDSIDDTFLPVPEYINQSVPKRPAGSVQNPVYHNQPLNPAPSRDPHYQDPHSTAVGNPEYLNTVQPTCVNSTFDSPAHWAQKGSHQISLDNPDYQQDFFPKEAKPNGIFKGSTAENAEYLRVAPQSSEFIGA
Cyclin-dependent kinase 5/CDK5 activator 1 (Homo sapiens), sequence (Q00535 whole entry): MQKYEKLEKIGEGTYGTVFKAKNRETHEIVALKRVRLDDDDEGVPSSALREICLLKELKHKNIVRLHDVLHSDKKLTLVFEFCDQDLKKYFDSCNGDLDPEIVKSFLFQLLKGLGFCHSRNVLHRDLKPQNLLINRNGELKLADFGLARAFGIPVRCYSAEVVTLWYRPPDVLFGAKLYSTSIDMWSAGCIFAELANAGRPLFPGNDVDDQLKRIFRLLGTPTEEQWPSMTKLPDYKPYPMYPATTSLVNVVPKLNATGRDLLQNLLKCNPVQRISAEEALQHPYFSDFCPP
Cyclin-dependent kinase 5/CDK5 activator 1 (Homo sapiens), sequence (Q15078 99-307 partner limits assumed): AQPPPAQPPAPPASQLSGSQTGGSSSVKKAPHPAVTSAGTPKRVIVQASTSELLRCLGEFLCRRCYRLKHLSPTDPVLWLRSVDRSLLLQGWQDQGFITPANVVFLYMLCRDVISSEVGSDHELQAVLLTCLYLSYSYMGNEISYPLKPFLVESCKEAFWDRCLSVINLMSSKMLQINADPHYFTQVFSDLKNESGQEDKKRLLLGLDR
Glycogen synthase kinase-3 beta (Homo sapiens), sequence (P49841 whole entry, looked up): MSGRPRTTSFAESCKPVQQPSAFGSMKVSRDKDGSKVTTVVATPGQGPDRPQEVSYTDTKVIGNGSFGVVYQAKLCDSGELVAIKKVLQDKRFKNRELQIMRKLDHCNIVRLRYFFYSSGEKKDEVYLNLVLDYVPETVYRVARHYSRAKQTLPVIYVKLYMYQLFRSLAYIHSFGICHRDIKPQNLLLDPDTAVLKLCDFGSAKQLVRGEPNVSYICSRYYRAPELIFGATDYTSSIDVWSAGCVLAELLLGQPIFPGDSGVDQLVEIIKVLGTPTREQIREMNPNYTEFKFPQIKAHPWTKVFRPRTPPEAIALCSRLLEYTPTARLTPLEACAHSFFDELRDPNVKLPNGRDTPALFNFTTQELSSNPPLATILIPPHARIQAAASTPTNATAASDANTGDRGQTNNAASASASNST
Aurora kinase B (Homo sapiens), sequence (Q96GD4 whole entry): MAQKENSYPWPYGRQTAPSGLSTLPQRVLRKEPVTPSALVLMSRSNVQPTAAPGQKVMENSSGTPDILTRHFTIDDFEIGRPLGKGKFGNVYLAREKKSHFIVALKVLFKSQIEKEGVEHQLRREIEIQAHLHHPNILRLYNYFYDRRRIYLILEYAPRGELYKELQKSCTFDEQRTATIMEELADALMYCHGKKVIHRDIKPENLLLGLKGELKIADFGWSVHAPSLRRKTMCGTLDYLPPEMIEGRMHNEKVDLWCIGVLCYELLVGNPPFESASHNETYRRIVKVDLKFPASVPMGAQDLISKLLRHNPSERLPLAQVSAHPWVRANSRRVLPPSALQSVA

For `CCCCNC(=O)N1Cc2c(NC(=O)c3ccc(OC)cc3)nn(C(=O)c3ccccc3)c2C1`, which IC50 (HCT-116 [1]) is on record?
The IC50 was 25.3 µM.

With `CCCCNC(=O)N1Cc2c(NC(=O)c3ccccc3)nn(C(=O)c3ccccc3)c2C1` as the compound, how does the IC50 (HCT-116 [1]) read?
Its IC50 is 7.47 µM.

With `CC(=O)n1nc(NC(=O)c2ccccc2)c2c1CN(C(=O)c1cccc(Cl)c1)C2` as the compound, how does the IC50 (HCT-116 [1]) read?
The IC50 was 17.4 µM.

For `CCCCNC(=O)N1Cc2c(NC(=O)c3ccccc3)nn(C(=O)C3CC3)c2C1`, which IC50 (HCT-116 [1]) is on record?
The IC50 was 3.47 µM.

Which IC50 (HCT-116 [1]) does the source give for `O=C(Nc1nn(C(=O)C2CC2)c2c1CN(C(=O)c1ccccc1)C2)c1ccc(F)cc1` here?
Its IC50 is 2.28 µM.

With `CC(=O)n1nc(NC(=O)c2ccccc2)c2c1CN(C(=O)c1ccncc1)C2` as the compound, how does the IC50 (HCT-116 [1]) read?
The IC50 was 10 µM.

Which IC50 (HCT-116 [1]) does the source give for `O=C(Nc1nn(C(=O)Cc2ccccc2)c2c1CN(C(=O)c1ccccc1)C2)c1ccccc1` here?
The IC50 was 2.61 µM.

What does the source list for `CC[C@H](CO)Nc1nc(NCc2ccccc2)c2ncn(C(C)C)c2n1` [SELICICLIB]?
IC50 (HCT-116 [1]): 16.4 µM; IC50 (HT-29 [2]): 11.6 µM; IC50 (MCF7 [3]): 12.2 µM; IC50 (HepG2 [4]): 15.5 µM; IC50 (A549 [5]): 14.1 µM; IC50 (HT-1080 [6]): 9.62 µM; IC50 [7]: 20.5 µM

For `CC(=O)n1nc(NC(=O)c2ccccc2)c2c1CN(C(=O)C1CCC(C)CC1)C2` (stereo not drawn), which IC50 (HCT-116 [1]) is on record?
The IC50 was 12.2 µM.

With `COc1ccc(C(=O)Nc2n[nH]c3c2CN(C(=O)c2ccccc2)C3)cc1` as the compound, how does the IC50 (HCT-116 [1]) read?
Its IC50 is 13.6 µM.

With `CC(=O)n1nc(NC(=O)c2ccccc2)c2c1CN(C(=O)c1cccc([N+](=O)[O-])c1)C2` as the compound, how does the IC50 (HCT-116 [1]) read?
The IC50 was 17.3 µM.

For `CCCCNC(=O)N1Cc2c(NC(=O)c3ccc(F)cc3)nn(C(=O)c3ccccc3)c2C1`, which IC50 (HCT-116 [1]) is on record?
The IC50 was 30.8 µM.

Which IC50 (HCT-116 [1]) does the source give for `CCCCNC(=O)N1Cc2c(NC(=O)c3ccc(OC)cc3)nn(C(=O)C3CC3)c2C1` here?
The IC50 was 65.5 µM.

Which IC50 (HCT-116 [1]) does the source give for `COc1ccc(C(=O)Nc2nn(C(=O)C3CC3)c3c2CN(C(=O)c2ccccc2)C3)cc1` here?
The IC50 was 5.18 µM.

Which IC50 (HCT-116 [1]) does the source give for `O=C(Nc1nn(C(=O)c2ccccc2)c2c1CN(C(=O)c1ccccc1)C2)c1ccccc1` here?
Its IC50 is 1.4 µM.

For `CC(=O)n1nc(NC(=O)c2ccccc2)c2c1CN(C(=O)CCl)C2`, which IC50 (HCT-116 [1]) is on record?
Its IC50 is 4.1 µM.

Which IC50 (HCT-116 [1]) does the source give for `COc1ccc(C(=O)Nc2nn(C(=O)c3ccccc3)c3c2CN(C(=O)c2ccccc2)C3)cc1` here?
Its IC50 is 31.3 µM.

Which IC50 (HCT-116 [1]) does the source give for `CC(=O)n1nc(NC(=O)c2ccccc2)c2c1CN(C(=O)N(C)C)C2` here?
The IC50 was 70.3 µM.

With `O=C(Nc1nn(C(=O)c2ccccc2)c2c1CN(C(=O)c1ccccc1)C2)c1ccc(F)cc1` as the compound, how does the IC50 (HCT-116 [1]) read?
Its IC50 is 2.78 µM.

With `CCCCNC(=O)N1Cc2c(NC(=O)c3ccc(C)cc3)nn(C(=O)c3ccccc3)c2C1` as the compound, how does the IC50 (HCT-116 [1]) read?
Its IC50 is 23.2 µM.

For `CCCCNC(=O)N1Cc2c(NC(=O)c3ccc(C)cc3)nn(C(=O)C3CC3)c2C1`, which IC50 (HCT-116 [1]) is on record?
Its IC50 is 17.6 µM.

Which IC50 (HCT-116 [1]) does the source give for `O=C(Nc1n[nH]c2c1CN(C(=O)c1ccccc1)C2)c1ccccc1` here?
Its IC50 is 6.4 µM.

For `CCC(=O)n1nc(NC(=O)c2ccccc2)c2c1CN(C(=O)c1ccccc1)C2`, which IC50 (HCT-116 [1]) is on record?
Its IC50 is 1.06 µM.

And the IC50 (HT-29 [2])?
The IC50 was 0.91 µM.

And the IC50 (MCF7 [3])?
The IC50 was 1.07 µM.

What about the IC50 (HepG2 [4]) of the same compound?
Its IC50 is 0.86 µM.

And the IC50 [7]?
The IC50 was 2.47 µM.

For `CC(=O)n1nc(NC(=O)c2ccccc2)c2c1CN(C(=O)c1ccc([N+](=O)[O-])cc1)C2`, which IC50 (HCT-116 [1]) is on record?
Its IC50 is 16.2 µM.

For `CCCCNC(=O)N1Cc2c(NC(=O)Cc3ccccc3)nn(C(=O)c3ccccc3)c2C1`, which IC50 (HCT-116 [1]) is on record?
The IC50 was 43.1 µM.

For `CCCCNC(=O)N1Cc2c(NC(=O)Cc3ccccc3)nn(C(=O)C3CC3)c2C1`, which IC50 (HCT-116 [1]) is on record?
The IC50 was 31.2 µM.

For `CC(=O)n1nc(NC(=O)c2ccccc2)c2c1CN(C(=O)c1ccc(-c3ccccc3)cc1)C2`, which IC50 (HCT-116 [1]) is on record?
The IC50 was > 90 µM.

Which IC50 (HCT-116 [1]) does the source give for `O=C(Nc1nn(C(=O)C2CC2)c2c1CN(C(=O)c1ccccc1)C2)c1ccccc1` here?
The IC50 was 1.24 µM.

With `CCCCNC(=O)N1Cc2c(NC(=O)c3ccc(F)cc3)nn(C(=O)C3CC3)c2C1` as the compound, how does the IC50 (HCT-116 [1]) read?
Its IC50 is 23.2 µM.

For `CC(=O)n1nc(NC(=O)c2ccccc2)c2c1CN(C(=O)c1ccccc1)C2`, which IC50 (HCT-116 [1]) is on record?
Its IC50 is 0.58 µM.

And the IC50 (HT-29 [2])?
The IC50 was 0.92 µM.

What about the IC50 (MCF7 [3]) of the same compound?
The IC50 was 0.99 µM.

And the IC50 (HepG2 [4])?
Its IC50 is 0.81 µM.

And the IC50 (A549 [5])?
The IC50 was 1.74 µM.

And the IC50 (HT-1080 [6])?
The IC50 was 2.13 µM.

What about the IC50 [7] of the same compound?
The IC50 was 2.22 µM.

And the “Ratio IC50” value (HT-1080 [8])?
The value was 4.

And the “Ratio IC50” value (HepG2 [9])?
Its value is 4.

What about the “Ratio IC50” value (HCT-116 [10]) of the same compound?
Its value is 28.

What about the “Ratio IC50” value (HT-29 [11]) of the same compound?
The value was 4.

What about the “Ratio IC50” value (MCF7 [12]) of the same compound?
Its value is 4.

What about the “Ratio IC50” value (A549 [13]) of the same compound?
Its value is 4.

And the inhibition [14]?
Its inhibition is 30%.

And the inhibition [15]?
Its inhibition is 17%.

What about the inhibition [16] of the same compound?
Its inhibition is 30%.

What about the inhibition [17] of the same compound?
Its inhibition is 72%.

And the inhibition [18]?
Its inhibition is 5%.

What about the inhibition [19] of the same compound?
Its inhibition is 10%.

And the inhibition [20]?
The inhibition was 8%.

And the inhibition [21]?
Its inhibition is 67%.

And the inhibition [22]?
Its inhibition is 33%.

And the inhibition [23]?
The inhibition was 32%.

And the inhibition [24]?
The inhibition was 3%.

Which IC50 (HCT-116 [1]) does the source give for `CC(=O)n1nc(NC(=O)c2ccccc2)c2c1CN(S(=O)(=O)N(C)C)C2` here?
Its IC50 is 35.3 µM.

For `CC(=O)n1nc(NC(=O)c2ccccc2)c2c1CN(C(=O)c1cccc(F)c1)C2`, which IC50 (HCT-116 [1]) is on record?
The IC50 was 21.9 µM.

For `CC(C)C(=O)n1nc(NC(=O)c2ccccc2)c2c1CN(C(=O)c1ccccc1)C2`, which IC50 (HCT-116 [1]) is on record?
The IC50 was 2.02 µM.

Which IC50 (HCT-116 [1]) does the source give for `O=C(Nc1n[nH]c2c1CN(C(=O)c1ccccc1)C2)c1ccc(F)cc1` here?
Its IC50 is 3.19 µM.

With `CC(=O)n1nc(NC(=O)c2ccccc2)c2c1CN(S(=O)(=O)c1ccc([N+](=O)[O-])cc1)C2` as the compound, how does the IC50 (HCT-116 [1]) read?
Its IC50 is 22.3 µM.
